From patent US6737383B1, “Herbicidal oxadiazolidines” (priority 1999, dated 2004)

Experiments:
[1] = tested on: duck salad; experiment: Test B flood test duck salad; format: in vivo, Heteranthera limosa
Procedure, shortened: (§1)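 Plants were grown to the 2-leaf stage before treatment with test chemical, then held in a greenhouse for twelve to sixteen days. Injury was visually rated against untreated controls on a 0–10 scale, where 0 is no effect and 10 is complete control.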

[2] = tested on: crabgrass; experiment: Test B pre/postemergence crabgrass; format: in vivo, Digitaria sanguinalis
Procedure, shortened: (§2)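 Response is a visual 0-to-10 score relative to untreated plants, where 0 means no effect and 10 means complete control, taken twelve to sixteen days after application. Treatments went onto soil at planting and onto foliage of 1- to 4-leaf plants, using a surfactant-containing non-phytotoxic solvent.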

[3] = tested on: bamyardgrass; experiment: Test B flood test barnyardgrass; format: in vivo, Echinochloa crus-galli
Procedure, shortened: as §1

[4] = tested on: purple nutsedge; experiment: Test B pre/postemergence purple nutsedge; format: in vivo, Cyperus rotundus
Procedure, shortened: as §2

[5] = Postemergence, Rate 1000 g/ha, scale 0 to 10 (0 no effect, 10 complete control)
[6] = Rate 125 g/ha, Postemergence section (flood test species), scale 0 to 10, 0 no effect, 10 complete control
[7] = Rate 500 g/ha, Postemergence section of Table B, 0 to 10 scale (0 no effect, 10 complete control)
[8] = flood test, listed under Postemergence, Rate 250 g/ha, scale 0 to 10, 0 no effect, 10 complete control
[9] = Postemergence, Rate 250 g/ha, scale 0 to 10, 0 no effect, 10 complete control
[10] = Preemergence, Rate 125 g/ha, scale 0 to 10 (0 no effect, 10 complete control)
[11] = Preemergence, Rate 250 g/ha, scale of 0 to 10 where 0 is no effect and 10 is complete control
[12] = Preemergence, Rate 500 g/ha, scale 0 (no effect) to 10 (complete control)
[13] = Rate 125 g/ha, Postemergence, scale 0 to 10, 0 no effect, 10 complete control
[14] = Rate 500 g/ha, Postemergence, 0 to 10 scale (0 no effect, 10 complete control)
[15] = Rate 1000 g/ha, Preemergence, scale 0 to 10 (0 no effect, 10 complete control)
[16] = Postemergence, Rate 62 g/ha, scale 0 to 10, 0 is no effect, 10 is complete control
[17] = Preemergence, Rate 62 g/ha, scale 0 to 10, 0 is no effect, 10 is complete control
[18] = Preemergence, Rate 31 g/ha, visual rating, scale 0 to 10 (0 no effect, 10 complete control)
[19] = Rate 31 g/ha, Postemergence, scale 0 to 10
[20] = Rate 125 g/ha, Pre-emergence, flood test species, scale 0 to 10 where 0 is no effect and 10 is complete control
[21] = Rate 250 g/ha, headed Pre-emergence (flood test species), scale 0 to 10 (0 no effect, 10 complete control)
[22] = Rate 500 g/ha, headed Pre-emergence (flood test species), scale 0 to 10 (0 no effect, 10 complete control)
[23] = Rate 1000 g/ha, Pre-emergence (as headed), scale 0 to 10

Structure (SMILES) | Ducksalad plant response rating [1, 5] | Ducksalad plant response rating [1, 6] | Ducksalad plant response rating [1, 7] | Ducksalad plant response rating [1, 8] | Crabgrass plant response rating [2, 9] | Crabgrass plant response rating [2, 5] | Plant response rating, Crabgrass [2, 10] | Plant response rating, Crabgrass [2, 11] | Crabgrass plant response rating [2, 12] | Crabgrass plant response rating [2, 13] | Crabgrass plant response rating [2, 14] | Barnyardgrass plant response rating [3, 6] | Barnyardgrass plant response rating [3, 7] | Barnyardgrass plant response rating [3, 8] | Nutsedge plant response rating [4, 9] | Nutsedge plant response rating [4, 13] | Nutsedge plant response rating [4, 14] | Plant response rating, Nutsedge [4, 10] | Plant response rating, Nutsedge [4, 11] | Nutsedge plant response rating [4, 12] | also measured
CCN(CC)C(=O)n1oc(=O)n(-c2ccc(OC)cc2)c1=O [Compound 1] | 0 | 0 | 0 | 0 | 5 | 9 | 4 | 8 | 8 | 0 | 8 | 0 | 0 | 0 | 0 | 0 | 0 |  |  |  | Plant response rating, Crabgrass [2, 15]: 9; Barnyardgrass plant response rating [3, 5]: 0; Nutsedge plant response rating [4, 5]: 0
COc1ccc(-n2c(=O)on(C(=O)N(C3=CCOCC3)C(C)C)c2=O)cc1 [Compound 6] | 0 | 0 | 0 | 0 | 2 | 7 | 7 |  | 9 | 0 | 5 | 0 | 0 | 0 |  |  |  | 0 | 0 | 0 | Plant response rating, Crabgrass [2, 15]: 10; Barnyardgrass plant response rating [3, 5]: 8; Plant response rating, Nutsedge [4, 15]: 0
CC(C)N(C(=O)n1oc(=O)n(-c2cc(Cl)cc(Cl)c2)c1=O)C1=CCOCC1 [Compound 9] | 0 | 0 | 0 | 0 | 0 | 0 | 3 | 0 | 3 | 0 | 0 | 0 | 0 | 0 |  |  |  | 0 | 0 | 0 | Plant response rating, Crabgrass [2, 15]: 3; Barnyardgrass plant response rating [3, 5]: 0; Plant response rating, Nutsedge [4, 15]: 0
Cc1ccccc1-n1c(=O)on(C(=O)N(C2=CCOCC2)C(C)C)c1=O [Compound 10] |  | 0 | 0 | 0 | 9 |  | 7 |  | 7 | 6 | 9 | 0 | 0 | 0 | 0 | 0 | 0 | 0 | 0 | 0 | Ducksalad plant response rating [1, 16]: 0; Crabgrass plant response rating [2, 16]: 3; Plant response rating, Crabgrass [2, 17]: 2; Barnyardgrass plant response rating [3, 16]: 0; Nutsedge plant response rating [4, 16]: 0; Plant response rating, Nutsedge [4, 17]: 0
CC(C)N(C(=O)n1oc(=O)n(-c2ccc(OC(F)(F)F)cc2)c1=O)C1=CCOCC1 [Compound 13] | 0 | 0 | 0 | 0 | 5 | 9 | 2 | 5 | 5 | 1 | 9 | 0 | 0 | 0 | 0 | 0 | 0 | 0 | 0 | 0 | Plant response rating, Crabgrass [2, 15]: 8; Barnyardgrass plant response rating [3, 5]: 0; Nutsedge plant response rating [4, 5]: 0; Plant response rating, Nutsedge [4, 15]: 0
CCN(C(=O)n1oc(=O)n(-c2ccc(C)cc2C)c1=O)C1CCCCC1 [Compound 26] |  | 0 | 0 | 0 | 1 |  | 0 | 3 |  | 0 |  | 0 | 0 | 0 | 0 | 0 |  | 0 | 0 |  | Ducksalad plant response rating [1, 16]: 0; Crabgrass plant response rating [2, 16]: 0; Crabgrass plant response rating [2, 18]: 0; Plant response rating, Crabgrass [2, 17]: 0; Crabgrass plant response rating [2, 19]: 0; Barnyardgrass plant response rating [3, 16]: 0; Nutsedge plant response rating [4, 16]: 0; Nutsedge plant response rating [4, 18]: 0; Plant response rating, Nutsedge [4, 17]: 0; Nutsedge plant response rating [4, 19]: 0
COc1ccc(-n2c(=O)on(C(=O)N(c3ccc(F)cc3)C(C)C)c2=O)c(C)c1 [Compound 35] |  | 0 | 0 | 0 | 1 |  | 3 | 6 | 10 | 0 | 7 | 0 | 0 | 0 | 0 | 0 | 0 | 0 | 0 | 0 | Ducksalad plant response rating [1, 16]: 0; Ducksalad plant response rating [1, 20]: 0; Ducksalad plant response rating [1, 21]: 0; Plant response rating, Ducksalad [1, 22]: 0; Ducksalad plant response rating [1, 23]: 0; Crabgrass plant response rating [2, 16]: 0; Plant response rating, Crabgrass [2, 17]: 3; Barnyardgrass plant response rating [3, 16]: 0; Barnyardgrass plant response rating [3, 20]: 0; Barnyardgrass plant response rating [3, 21]: 0; Plant response rating, Barnyardgrass [3, 22]: 0; Barnyardgrass plant response rating [3, 23]: 0; Nutsedge plant response rating [4, 16]: 0; Plant response rating, Nutsedge [4, 17]: 0
Cc1ccccc1-n1c(=O)on(C(=O)N(c2ccc(Cl)cc2)C(C)C)c1=O [Compound 41] |  | 0 | 0 | 0 | 5 |  | 4 | 8 | 10 | 1 | 7 | 0 | 0 | 0 | 0 | 0 | 0 | 0 | 0 | 0 | Ducksalad plant response rating [1, 16]: 0; Crabgrass plant response rating [2, 16]: 0; Plant response rating, Crabgrass [2, 17]: 3; Barnyardgrass plant response rating [3, 16]: 0; Nutsedge plant response rating [4, 16]: 0; Plant response rating, Nutsedge [4, 17]: 0
